Measured values published in PubChem BioAssay (NCI).
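Protocol summary: plate cells (96-well), add compound at 5 concentrations, incubate 48 h, interpolate endpoints linearly. Abbreviation: GI50, concentration required for 50% inhibition of growth. TGI: concentration producing complete growth inhibition.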

How the values were obtained:
Test in all cases: growth of human tumour cells (NCI), 48 h
SR leukemia = test system: SR leukemia
A498 renal = test system: A498 renal
786-0 renal = test system: 786-0 renal
U251 CNS = test system: U251 CNS
SW-620 colon = test system: SW-620 colon
A549 NSCLC = test system: A549 NSCLC
OVCAR-8 ovarian = test system: OVCAR-8 ovarian
MCF7 breast = test system: MCF7 breast
SK-OV-3 ovarian = test system: SK-OV-3 ovarian
OVCAR-5 ovarian = test system: OVCAR-5 ovarian
LOX IMVI melanoma = test system: LOX IMVI melanoma
MDA-MB-231 breast = test system: MDA-MB-231 breast
SNB-75 CNS = test system: SNB-75 CNS
SK-MEL-2 melanoma = test system: SK-MEL-2 melanoma
NCI-H522 lung = test system: NCI-H522 lung
MALME-3M melanoma = test system: MALME-3M melanoma
HS 578T breast = test system: HS 578T breast
ACHN renal = test system: ACHN renal
UACC-62 melanoma = test system: UACC-62 melanoma
HOP-62 NSCLC = test system: HOP-62 NSCLC
PC-3 prostate = test system: PC-3 prostate
MDA-MB-435 = test system: MDA-MB-435
DU-145 prostate = test system: DU-145 prostate
SN12C renal = test system: SN12C renal
HL-60(TB) leukemia = test system: HL-60(TB) leukemia
IGROV1 ovarian = test system: IGROV1 ovarian
NCI-H23 lung = test system: NCI-H23 lung
BT-549 breast = test system: BT-549 breast

For `COc1ccc(/C=C(/C(=O)N2CCN(c3ccccc3)CC2)c2cc(OC)c(OC)c(OC)c2)cc1O`, the GI50 (SR leukemia) was 381 nM, the TGI (SR leukemia) was 58400 nM and the GI50 (A498 renal) was 211 nM. For the same compound, the TGI (A498 renal) was 1920 nM, the GI50 (786-0 renal) was 4100 nM and the TGI (786-0 renal) was greater than 100000 nM. For the same compound, the GI50 (U251 CNS) was 445 nM, the TGI (U251 CNS) was greater than 100000 nM and the GI50 (SW-620 colon) was 468 nM. It also gave a TGI (SW-620 colon) greater than 100000 nM, a GI50 (A549 NSCLC) of 764 nM and a TGI (A549 NSCLC) greater than 100000 nM. For the same compound, the GI50 (OVCAR-8 ovarian) was 419 nM, the TGI (OVCAR-8 ovarian) was greater than 100000 nM and the GI50 (MCF7 breast) was 307 nM. The TGI (MCF7 breast) was greater than 100000 nM, the GI50 (SK-OV-3 ovarian) was 586 nM and the TGI (SK-OV-3 ovarian) was greater than 100000 nM. The GI50 (OVCAR-5 ovarian) was 678 nM, the TGI (OVCAR-5 ovarian) was greater than 100000 nM and the GI50 (LOX IMVI melanoma) was 398 nM. It also gave a TGI (LOX IMVI melanoma) greater than 100000 nM, a GI50 (MDA-MB-231 breast) of 378 nM and a TGI (MDA-MB-231 breast) of 50900 nM. The GI50 (SNB-75 CNS) was 293 nM, the TGI (SNB-75 CNS) was greater than 100000 nM and the GI50 (SK-MEL-2 melanoma) was 387 nM. The TGI (SK-MEL-2 melanoma) was 86500 nM, the GI50 (NCI-H522 lung) was 128 nM and the TGI (NCI-H522 lung) was 594 nM. The GI50 (MALME-3M melanoma) was 24700 nM, the TGI (MALME-3M melanoma) was greater than 100000 nM and the GI50 (HS 578T breast) was 712 nM. For the same compound, the TGI (HS 578T breast) was greater than 100000 nM, the GI50 (ACHN renal) was 457 nM and the TGI (ACHN renal) was greater than 100000 nM. For the same compound, the GI50 (UACC-62 melanoma) was 332 nM, the TGI (UACC-62 melanoma) was greater than 100000 nM and the GI50 (HOP-62 NSCLC) was 550 nM. It also gave a TGI (HOP-62 NSCLC) greater than 100000 nM, a GI50 (PC-3 prostate) of 580 nM and a TGI (PC-3 prostate) greater than 100000 nM. For the same compound, the GI50 (MDA-MB-435) was 150 nM, the TGI (MDA-MB-435) was 514 nM and the GI50 (DU-145 prostate) was 451 nM. It also gave a TGI (DU-145 prostate) greater than 100000 nM, a GI50 (SN12C renal) of 564 nM and a TGI (SN12C renal) greater than 100000 nM. For the same compound, the GI50 (HL-60(TB) leukemia) was 239 nM, the TGI (HL-60(TB) leukemia) was 575 nM and the GI50 (IGROV1 ovarian) was 519 nM. For the same compound, the TGI (IGROV1 ovarian) was greater than 100000 nM, the GI50 (NCI-H23 lung) was 938 nM and the TGI (NCI-H23 lung) was greater than 100000 nM. The GI50 (BT-549 breast) was 391 nM.
